How the values were obtained:
[1] = Kinetic profile of mineral formation; details: fast = immediate mineral formation; slow = about 5 minutes to about 1 hour
Description: Fast kinetics refers to fast mineral formation, such as immediate mineral formation, while slow mineral formation refers to mineral formation over a period of time, such as about 5 minutes to about 1 hour. In some embodiments, a first biomineralizing peptide having faster kinetics can be used in combination with a second biomineralizing peptide having slower kinetics.

[2] = In vitro re-mineralization of tea-stained rat tooth with peptide solution; details: peptide 10 min 37° C., then CaCl2/KH2PO4 16 hours 37° C., control in Tris buffer
Description: Rat teeth (molars) were obtained from sacrificed rats (for example, Sprague Dawley rats, age 3 weeks or older) from animal facility, collected, and stored in 100% alcohol. Prior to the re-mineralization experiments the teeth were stored in 1% bleach for 24 hours. […] The teeth were then dried in an incubator in air at 37° C. for 3-6 hours to produce dry surface. The root site and section the crown were removed vertically using a diamond blade. Pictures were taken with camera attached to optical microscope. Exposed dentine sites in the one half of the sectioned tooth were etched with 35% phosphoric acid (Ultraetch™) for 60 seconds (to facilitate the stain intake). The etching gel was removed by rinsing the sample with distilled water for 3 minutes. The staining solution was prepared by boiling 2 g of tea in 100 ml of deionized water for 5 minutes, and then cooled down to room temperature and filtered. The tooth sample was soaked in the staining solution and incubated at 37° C. at 150 rpm for 24 hours. The tooth was removed from the staining solution and sonicated for 30 seconds in deionized water (sonic bath) to remove the excess amount of tea particles attached to tooth extrinsically. The one half of the sectioned tooth was cut vertically into half again to form two quarter sections of the tooth. A second set of pictures were taken with camera attached to optical microscope. […]

[3] = In vitro re-mineralization of tea-stained human tooth with peptide solution; line profile analysis (Mean Pixel Intensity, ImageJ)
Description: A caries-free human tooth was sterilized in 1% bleach solution for 24 hours then removed and vigorously rinsed with deionized water. The root site was removed and the crown sectioned vertically using a diamond blade. Pictures were taken with a camera attached to an optical microscope.
The exposed dentine sites were etched with 35% phosphoric acid (Ultraetch™) for 60 seconds (to facilitate the stain intake). The etching gel was removed by rinsing the sample with distilled water for 3 minutes. The staining solution was prepared by boiling 2 g of tea in 100 ml of deionized water for 5 minutes, which was then cooled down to room temperature and filtered. The tooth was soaked in the staining solution and incubated at 37° C. at 150 rpm for 24 hours. The tooth was then removed from the staining solution and sonicated for 30 seconds in deionized water (sonic bath) to remove the excess amount of tea particles attached to tooth extrinsically. The sectioned tooth was cut vertically in half again to form two quarter sections of the tooth. FIGS. 2(a) to 2(g) show various sections of the tooth after the staining. […] Figures (b), (c) and (d) show different views of the left quarter of the tooth that was sectioned from the tooth. Figures (e), (f) and (g) show different views of the right quarter of the tooth that was sectioned from the tooth. As can be observed from FIGS. 2(a) to 2(g), brown stains from the staining solution were formed on the surface and below the surface of the tooth. The left quarter of the tooth was stored in 24 mM Tris Buffer (pH: 7.4) for control and the right quarter of the tooth (test tooth) was used for in vitro re-mineralization. The test tooth was submerged into peptide solution (600 μl) containing a mineralization polypeptide in a 48 well plate and incubated for 10 minutes at 37° C. After incubation, the tooth was removed and placed into to a new well. A mineralization solution of 400 μl of 9.6 mM CaCl2 and 400 μl of 5.6 mM KH2PO4 was added and quickly mixed by pipetting the solution up and down. […]

[4] = Solution mineralization approach, 25 rounds, colour measured with Minolta Chroma Meter CR-200; details: unstained sectioned human tooth, peptide 10 minutes, calcium/phosphate ions 2 hours 37° C.
Description: The root site of an extracted human tooth was removed and the crown portion of the tooth was sectioned vertically into half. A thin layer of enamel was removed from one half of the sectioned tooth such that the dentin layer is exposed without completely removing the enamel on the tooth. This allowed imaging of the enamel surfaces after the mineralization experiment without the problem of surface reflection, and provides a more parallel surface from which to compare the whiteness results. The sectioned tooth was fixed onto a glass slide with epoxy. Initial color measurements of each of the four sides of the sectioned tooth was obtained using a Minolta Chroma Meter CR-200 (Konica Minolta, Tokyo, Japan), according to manufacturer instructions, using a white background and a black background. The sectioned tooth was incubated in a mineralization polypeptide solution for 10 minutes at 37° C. and then in a solution with calcium ions and phosphate ions for 2 hours at 37° C. Color measurements of each of the four sides of the sample were taken as described initially. The sectioned was rinsed with deionized water and the remineralization process (incubation in polypeptide solution, incubation in solution of ion sources, and rinsing with deionized water) was repeated for a total of 25 rounds. The mineralization polypeptide was SYENSHSQAINVDRT (shADP5; SEQ ID NO:16).

[5] = Solution mineralization approach on tetracycline-stained human teeth; line profile analysis (Mean Pixel Intensity); details: for Mean Pixel Intensity: shADP5 0.8 mM, tetracycline-stained
Description: Human teeth, donated by the University of Washington School of Dentistry (Seattle, Wash., USA), were selected for their clean, smooth surfaces. The teeth were sterilized in bleach, cut on a diamond blade to remove the root, and halved. A thin layer of the enamel surface was then cut on one of the halves parallel to the previous cut, such that the dentin layer could be seen without completely removing the enamel on the tooth. This allowed imaging of the enamel surfaces after the mineralization experiment without the problem of surface reflection encountered in previous experiments, in addition to a more parallel surface from which to compare the brightness or whiteness results. The cut enamel side of the tooth sample was then sonicated in DI water and polished on diamond slurry smooth out the surface for imaging. The sample was then cut into quarters, with the lower half selected for a tetracycline experiment because of the even distribution of dentin coloring in the lower quarters of the tooth sample. The samples were then stained in 10 mg/mL tetracycline solution for five days.
During mineralization, using a 96-well plate, one of the stained halves was stored in 1200 μL Tris (24 mM) as a negative control, and the experimental sample was incubated in 150 μL shADP5 (0.8 mM) at 37° C. for 10 minutes. The experimental sample was then rinsed of excess peptide with deionized water and then stored in 600 μL CaCl2 (9.6 mM), to which 600 μL monobasic KH2PO4 (5.76 mM) was added. The well plate containing both the control and experimental samples was then stored at 37° C. for about 24 hours for mineralization to occur on the treated stained tooth sample.
[…] After 27 rounds of mineralization on the experimental sample, the tooth was inspected for changes in brightness qualitatively. The stained negative control was polished to expose the original enamel stain in order to compare the whitening effect of the peptide mineralization.

| Substance | kinetic profile (mineral formation) [1] | colour of treated tooth quarter versus control [2] | Mean Pixel Intensity ([3]; Whitened (stained and remineralized), 0 = completely black, 100 = completely white, Bar C in FIG. 4) | whiteness versus original tooth and stained tooth ([3]; after staining and remineralization, from MPI in FIG. 4) | colour of treated tooth quarter versus control ([3]; tea-stained human tooth, peptide 10 minutes 37° C., then CaCl2/KH2PO4 16 hours 37° C., control in Tris buffer) | whiteness of the tooth enamel [4] | Mean Pixel Intensity ([5]; After 3 rounds of remineralization, Bar B in FIG. 6) | Mean Pixel Intensity ([5]; After 4 rounds of remineralization, Bar C in FIG. 6) | Mean Pixel Intensity ([5]; After 5 rounds of remineralization, Bar D in FIG. 6) | Mean Pixel Intensity ([5]; After 7 rounds of remineralization, Bar E in FIG. 6) | whiteness of the stained tooth ([5]; repeated rounds of remineralization (3 to 7 rounds)) |
| --- | --- | --- | --- | --- | --- | --- | --- | --- | --- | --- | --- |
| (HPP(S/T)HTLQPHHH(L/I)PVVPAQQPV (A/I)PQQPMMPVPG(H/Q)HSMTP(T/I)QH)1-10 [ADP7] | slow kinetic profile |  |  |  |  |  |  |  |  |  |  |
| (PGYIN(L/F)SYE(K/N)SHSQAIN(T/V)DRTA)1-10 [ADP5] | fast kinetic profile |  |  |  |  |  |  |  |  |  |  |
| SYENSHSQAINVDRT [shADP5, shortened amelogenin derived polypeptide ADP5] |  | lighter in color than the control | 96.21 ± 2.39 | improved whiteness over the original tooth and the stained tooth | lighter in color than the left quarter (control) | whiteness of the tooth enamel improved with each round of remineralization | 69.47 ± 2.96 | 70.11 ± 2.92 | 70.79 ± 1.96 | 74.47 ± 2.13 | whiteness of the stained tooth improves with repeated rounds of remineralization |

Source: patent US20180200172A1, “REAGENTS AND METHODS FOR WHITENING TEETH” (UNIVERSITY OF WASHINGTON THROUGH ITS CENTER FOR …, priority 2015, published 2018)
